This note sets out measurements from patent US11702428B2, “Chemical compounds as inhibitors of interleukin-1 activity” (Genentech, Inc., priority 2017, dated 2023).

SMILES strings stand for the structures. Read-outs that look alike come from different tables or passages of the source.

For orientation: IC50 means the concentration that inhibits the measured activity by half. Usually Cmax stands for the highest concentration seen after dosing. A word on the clearance: it is the rate of elimination divided by the concentration. The low end stands for inefficient removal, the high end for efficient removal. In general, half-life refers to the time in which the quantity being followed falls by half. The low end stands for fast loss, the high end for slow loss.

Data set [1] deals with T1, NLRP3 inflammasome (Homo sapiens, UniProt Q96P20). Kind of data set: NLRP3 inflammasome activation assay in Kupffer cells (LPS priming, nigericin), IL-1β/IL-18 by ELISA. It is filed as cell-based. As to conditions: KCs; for IC50: LPS, nigericin, read-out: KC IL-1β IC50. The source says:
(§1) Some of the following assays were used to determine the inhibitory activity of the compounds on the NLRP3 inflammasome using a common inflammasome activation stimuli-nigericin.
Human Kupffer cells (KCs), specialized liver macrophages residing in […], were obtained by gradient isolation from liver specimens harvested post-mortem by Samsara Sciences. Cells were obtained through an IRB approved donor program by Samsara Sciences and all donors tested negative for bacterial and viral infections.
(§2) Cells were then stimulated with 10 uM Nigericin (Sigma Aldrich; InvivoGen) for 1.5 h. Plates were centrifuged at 1,500 rpm for 3 minutes to pellet cells and supernatant was transferred into new plates for subsequent experiments.
(§3) For ELISA assays cells were seeded into 96-well plates. Post study, supernatants were removed and the levels of mature IL-1β, IL-18 and TNFα (Quantikine ELISA, R&D systems) were measured in cell conditioned media by ELISA according to manufacturer's instructions.
(In an ELISA, binding on a coated surface is turned into a signal by an enzyme label.)

For data set [2], the system named is LPS and nigericin stimulated cells. As to the kind of experiment: cells. It is filed as cell-based. The settings on record: Homo sapiens, read-out: CTG protective IC50. The procedure:
Viability of compound treated cells is measured using CellTiter-Glo® assay (Promega, Madison, Wis.) that measures the ATP content of cells which is proportional to the number of live cells within a well. This is a counter-screen to establish that the reduction of IL-1β levels in LPS and nigericin stimulated and compound treated cells is not due to cytotoxicity, but rather through the inhibition of the inflammasome pathway. Compounds inhibiting NRLP3 inflammasome activation ultimately increase the viability of LPS and nigericin stimulated cells by blocking NLRP3 mediated pyroptosis that would otherwise lead to cell lysis.

A short description of data set [3]: Human microsomal stability (Eh). The data set is classed as in vitro ADME. As to conditions: hepatic extraction ratio; 0.5 mg/mL microsomal protein, 1 μM, NADPH; liver blood flow 20.7 mL/min/kg. The procedure:
The stock solutions of test article and positive control were prepared at a concentration of 10 mM using DMSO as diluents. All stock solutions were then diluted to working concentrations at 0.25 mM with 70% acetonitrile. The cofactor used in this study was NADPH regenerating system, that was composed of 6.5 mM NADP, 16.5 mM G-6-P, 3 U/mL G-6-P D. The quench reagent was consisted of acetonitrile containing tolbutamide and propanolol (serve as internal standard). Incubation mixtures containing 0.5 mg/mL liver microsomal protein and […] test article/positive control in 100 mM potassium phosphate buffer.
The 0-minute samples were prepared by addition of an 80 μL aliquot of each incubation mixture to 300 μL quench reagent to precipitate proteins. The samples were vortexed, and then a 20 μL aliquot of the NADPH regenerating system was added in. The reaction was initiated by addition of 80 μL of the NADPH regenerating system to 320 μL of each incubation mixture. The final incubation conditions achieved in 400 μL are: 0.5 mg/mL microsomal protein, 1 μM test article/positive control, 1.3 mM NADP, 3.3 mM glucose 6 phosphate, 0.6 U/mL glucose 6 phosphate dehydrogenase. The mixtures were incubated in a 37° C. water bath with gentle shaking. A 100 μL aliquot of each mixture was removed at 10, 30, 90 minutes to a clean 96-well plate which contains 300 μL quench reagent to precipitate proteins, and centrifuged (4000×g, 10 min). 80 μL of supernatant are taken into 96-well assay plates pre-added with 160 μL ultrapure water, and then analyzed by LC-MS/MS. Hepatic extraction ratio (Eh) values were calculated from measured in vitro clearance assuming a human liver blood flow of 20.7 mL/min/kg. Eh values of <0.3 are indicative of compounds with favorable metabolic stability.

For data set [4], the target named is T1, NLRP3 inflammasome. As to the kind of experiment: NLRP3 inflammasome activation assay in PBMCs (LPS priming, nigericin), IL-1β by ELISA. The data set is classed as cell-based. Details: Human peripheral blood mononuclear cells (PBMCs); host or cells: primary human PBMCs from healthy donors. The settings on record: LPS, nigericin, read-out: PBMC IL-1β IC50. The procedure:
as §1
Human peripheral blood mononuclear cells (PBMCs), consisting of lymphocytes (T, B and NK cells), monocytes and dendritic cells, were freshly isolated from human peripheral blood from healthy donors. Cells were obtained through an IRB approved donor program by iXCells Biotechnologies where all the donors were tested for bacterial and viral infections. Cells were purified from peripheral blood using ficoll gradient centrifugation.
as §2, §3

The nature of a further data set: Pharmacokinetics in mice. The data set is classed as in vivo, CD-1 Mice. As to conditions: for Cmax / clearance / half-life / AUC(0-t) / Vd: mouse, plasma; for AUC(0-t): read-out: AUC 0-24 hr; for Vd: read-out: Vz. The procedure: The intravenous dosing solutions were administered at 1 mg/kg and were made by dissolving the test article into the formulations shown below. The oral dosing suspensions or solutions were administered at 10 mg/kg and were made by dissolving the test article in the formulations shown below. Blood samples were collected into tubes containing either K2EDTA or sodium heparin and kept chilled on ice block or wet ice immediately following collection and during processing. After centrifugation, the resulting plasma samples were stored in a freezer at −80° C. until samples were analyzed. Pharmacokinetic parameters were determined following measurement of compound concentrations in plasma using standard bioanalytical methods at timepoints ranging from 0 to 24 hours.

The mark [5] stands for this setting: LPS and nigericin stimulated cells, CellTiter-Glo.
Where [6] appears, read: Female CD-1 Mice, PO, 10 mg/kg, 0.5% MC, 0.25% Tween 80.
Where [7] appears, read: Male CD-1 Mice, PO, 10 mg/kg, 0.5% MC.

T1 sequence (Q96P20 whole entry): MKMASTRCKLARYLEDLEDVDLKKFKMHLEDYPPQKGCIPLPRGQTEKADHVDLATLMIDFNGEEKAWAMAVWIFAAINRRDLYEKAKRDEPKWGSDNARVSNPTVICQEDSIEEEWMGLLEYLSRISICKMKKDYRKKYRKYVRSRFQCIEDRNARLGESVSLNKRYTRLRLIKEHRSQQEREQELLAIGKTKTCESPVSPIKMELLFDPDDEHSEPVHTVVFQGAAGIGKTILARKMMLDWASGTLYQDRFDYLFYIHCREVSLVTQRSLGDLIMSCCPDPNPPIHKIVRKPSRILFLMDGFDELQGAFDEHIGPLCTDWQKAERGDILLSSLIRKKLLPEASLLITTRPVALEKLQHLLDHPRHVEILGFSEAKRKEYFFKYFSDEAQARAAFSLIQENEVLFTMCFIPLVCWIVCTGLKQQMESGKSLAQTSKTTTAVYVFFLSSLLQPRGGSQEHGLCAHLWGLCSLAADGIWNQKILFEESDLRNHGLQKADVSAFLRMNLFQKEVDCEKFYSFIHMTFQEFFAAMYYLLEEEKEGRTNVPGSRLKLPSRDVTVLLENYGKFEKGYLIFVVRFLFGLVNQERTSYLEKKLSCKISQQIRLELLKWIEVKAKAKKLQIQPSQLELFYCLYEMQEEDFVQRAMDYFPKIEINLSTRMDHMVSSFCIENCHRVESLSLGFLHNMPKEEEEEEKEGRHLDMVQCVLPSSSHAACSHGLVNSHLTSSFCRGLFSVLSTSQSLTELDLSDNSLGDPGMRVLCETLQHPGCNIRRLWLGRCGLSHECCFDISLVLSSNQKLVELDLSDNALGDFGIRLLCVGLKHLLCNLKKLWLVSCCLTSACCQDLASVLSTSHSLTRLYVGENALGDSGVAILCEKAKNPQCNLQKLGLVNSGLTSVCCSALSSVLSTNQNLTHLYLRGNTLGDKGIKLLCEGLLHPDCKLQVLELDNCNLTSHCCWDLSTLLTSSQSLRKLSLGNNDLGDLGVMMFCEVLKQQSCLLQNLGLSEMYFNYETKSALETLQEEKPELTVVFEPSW

As for `O=C(Nc1c2c(cc3c1CCC3)CCC2)NS(=O)(=O)c1cnn2c1NCCC2`, the IC50 (at NLRP3 inflammasome [1]; in data set [2] (setting [5]); at NLRP3 inflammasome [4]) was below 100 nM in each case. Besides, the “Human Microsomal Stability (Eh)” value in data set [3] was 0.2.

On to `O=C(Nc1c2c(cc3c1CCC3)CCC2)NS(=O)(=O)c1cnn2c1OCC1(COC1)C2` [Compound 5, N-((1,2,3,5,6,7-hexahydro-s-indacen-4-yl)carbamoyl)-5′,7′-dihydrospiro[oxetane-3,6′-pyrazolo[5,1-b][1,3]oxazine]-3′-sulfonamide], for which, at NLRP3 inflammasome [1], the “IL-1β production in Kupffer cells (FIG. 2)” value is recorded as “inhibition” and the “IL-18 production in Kupffer cells (FIG. 2)” value is “inhibition”.

As for `O=C(Nc1c2c(cc3c1CCC3)CCC2)NS(=O)(=O)c1cnn2c1OCC(N1CCCC1)C2` (centres unmarked), the IC50 (in data set [2] (setting [5]); at NLRP3 inflammasome [4]) was below 100 nM in each case. Besides, the “Human Microsomal Stability (Eh)” value in data set [3] turned out to be 0.6.

In the case of `CN[C@H]1COc2c(S(=O)(=O)NC(=O)Nc3c4c(c(F)c5c3CCC5)CCC4)cnn2C1`, the IC50 (in data set [2] (setting [5]); on NLRP3 inflammasome [4]) was below 100 nM in each case. Further, the “Human Microsomal Stability (Eh)” value in data set [3] is recorded as 0.2.

With `COC1CN([C@H]2COc3c(S(=O)(=O)NC(=O)Nc4c5c(cc6c4CCC6)CCC5)cnn3C2)C1` [E], in “Pharmacokinetics in mice” (setting [6]), the “Bioavailability (% F)” value turned out to be 53 % F, the Cmax turned out to be 8620 ng/mL, the half-life was 1.9 h and the AUC(0-t) worked out at 8270 ng·h/mL. In the data set “Pharmacokinetics in mice” (Female CD-1 Mice, IV, 1 mg/kg), the Cmax was found to be 2830 ng/mL, the clearance was 10.7 mL/min/kg, the half-life was 1.6 h and the AUC(0-t) stood at 1570 ng·h/mL. In addition, the Vd in “Pharmacokinetics in mice” (Female CD-1 Mice, IV, 1 mg/kg) is 1.47 L/kg.

Consider `CN(C)[C@H]1COc2c(S(=O)(=O)NC(=O)Nc3c4c(cc5c3CCC5)CCC4)cnn2C1` [C], for which, in “Pharmacokinetics in mice” (setting [7]), the “Bioavailability (% F)” value is reported as 33 % F, the highest level (Cmax) was 7530 ng/mL, the half-life is 1 h and the AUC(0-t) turned out to be 9950 ng·h/mL. Further, in the data set “Pharmacokinetics in mice” (Male CD-1 Mice, IV, 1 mg/kg), the Cmax stood at 5290 ng/mL, the clearance is 5.67 mL/min/kg, the half-life was 1.3 h and the AUC(0-t) amounted to 2990 ng·h/mL. For the same molecule, the Vd in the data set “Pharmacokinetics in mice” (Male CD-1 Mice, IV, 1 mg/kg) was determined as 0.64 L/kg.

Regarding `CNC1COc2c(S(=O)(=O)NC(=O)Nc3c4c(cc5c3CCC5)CCC4)cnn2C1` (centres unmarked), the IC50 in data set [2] was below 100 nM. Besides, the “Human Microsomal Stability (Eh)” value in data set [3] was 0.1.

In the case of `CC1COc2c(S(=O)(=O)NC(=O)Nc3c4c(cc5c3CCC5)CCC4)cnn2C1` (centres unmarked), the IC50 (on NLRP3 inflammasome [1]; in data set [2] (setting [5]); on NLRP3 inflammasome [4]) was below 100 nM throughout. Further, the “Human Microsomal Stability (Eh)” value in data set [3] is 0.4.

Take `CC1(C)COc2c(S(=O)(=O)NC(=O)Nc3c4c(cc5c3CCC5)CCC4)cnn2C1` [A]: in the data set “Pharmacokinetics in mice” (setting [7]), the “Bioavailability (% F)” value amounted to 64 % F, the Cmax came out at 22700 ng/mL, the half-life was 3.4 h and the AUC(0-t) was found to be 186000 ng·h/mL. In the data set “Pharmacokinetics in mice” (Male CD-1 Mice, IV, 1 mg/kg), the peak level (Cmax) was 9200 ng/mL, the clearance is 0.667 mL/min/kg, the half-life is 2.8 h and the AUC(0-t) came out at 29200 ng·h/mL. Moreover, in “Pharmacokinetics in mice” (Male CD-1 Mice, IV, 1 mg/kg), the Vd was found to be 0.137 L/kg.

For the molecule `CN[C@H]1COc2c(S(=O)(=O)NC(=O)Nc3c4c(cc5c3CCC5)CCC4)cnn2C1` [D], in “Pharmacokinetics in mice” (setting [6]), the “Bioavailability (% F)” value turned out to be 69 % F, the highest level (Cmax) was 13700 ng/mL, the half-life is 1.7 h and the AUC(0-t) was 23500 ng·h/mL. Besides, in the data set “Pharmacokinetics in mice” (Female CD-1 Mice, IV, 1 mg/kg), the Cmax was determined as 3310 ng/mL, the clearance is 5 mL/min/kg, the half-life was 1.6 h and the AUC(0-t) turned out to be 3400 ng·h/mL. The Vd in the data set “Pharmacokinetics in mice” (Female CD-1 Mice, IV, 1 mg/kg) is 0.69 L/kg.

In the case of `CCN[C@H]1COc2c(S(=O)(=O)NC(=O)Nc3c4c(cc5c3CCC5)CCC4)cnn2C1`, the IC50 (in data set [2] (setting [5]); on NLRP3 inflammasome [4]) was below 100 nM in each case. In data set [3], the “Human Microsomal Stability (Eh)” value stood at 0.2.

`O=C(Nc1c2c(cc3c1CCC3)CCC2)NS(=O)(=O)c1cnn2c1OCC(N1CCC1)C2` (centres unmarked): the IC50 (in data set [2] (setting [5]); at NLRP3 inflammasome [4]) was below 100 nM in each case.
